{"source": "patent US7795458B2", "about": "“Salt of (2S, 3S)-3-[[(1S)-1-isobutoxymethyl-3-methylbutyl] carbamoyl] oxirane-2-carboxylic acid” (Nippon Chemiphar Co., Ltd, priority 2003, dated 2010)", "key": {"cathepsin": {"tested_on": "cathepsin", "conditions": "background statement; cited from earlier work"}, "[1]": {"test": "Comparative stability test (solid kept at 80° C. for three days, light-shaded and airtight; remaining substance by HPLC)", "assay_type": "physicochemical", "conditions": "for Remaining ratio(%) after 3 days at 80° C.: 10 mg solid sample, thermostat at 80° C., three days, light-shaded and airtight, HPLC; for storage stability (result in words): left at 80° C. for three days", "protocol": "The crystalline Na salt of the invention (described in Example 9) was subjected to a comparative stability test. In the test, the Na salt was left at 80° C. for three days together with both the substance obtained by condensing the solution to dryness and the product collected by filtration and left at room temperature after recrystallization.\nThe crystalline K salt of the invention (described in Example 11) was subjected to a stability test in which the K salt was left at 80° C. for three days.\nmobile phase: a mixture of 0.1 mol/L sodium dihydrogen phosphate reagent (pH: 3.0)/acetonitrile (5:2),\nflow rate; controlled so that the retention time of (2S,3S)-3-[[(1S)-1-isobutoxymethyl-3-methylbutyl]-carbamoyl]oxirane-2-carboxylic acid would be approx. 13 minutes, and\nAs a sample, 10 mg of sodium or potassium (2S,3S)-3-[[(1S)-1-isobutoxymethyl-3-methylbutyl]carbamoyl]oxirane-2-carboxylate was weighed and placed in a test tube. After the sample was kept in a thermostat at 80° C. for three days under a light-shaded and airtight condition, the amount of remaining substance was measured by HPLC.\nThe same as those in Example 14."}}, "data": [{"smiles": "CC(C)COC[C@H](CC(C)C)NC(=O)[C@H]1O[C@@H]1C(=O)[O-].[Na+]", "note": "[Compound A, sodium (2S,3S)-3-[[(1S)-1-isobutoxymethyl-3-methylbutyl]carbamoyl]-oxirane-2-carboxylate]", "values": [{"measurement": "cathepsin-inhibitory action", "setting": "cathepsin", "result": "shows a cathepsin-inhibitory action"}]}, {"smiles": "CC(C)COC[C@H](CC(C)C)NC(=O)[C@H]1O[C@@H]1C(=O)[O-].[K+]", "note": "[K salt (obtained in Example 11), potassium (2S,3S)-3-[[(1S)-1-isobutoxymethyl-3-methylbutyl]carbamoyl]oxirane-2-carboxylate]", "values": [{"measurement": "Remaining ratio(%) after 3 days at 80° C.", "setting": "[1]", "result": 99.9, "unit": "%"}, {"measurement": "storage stability (result in words)", "setting": "[1]", "result": "excellent in storage stability"}]}, {"smiles": "CC(C)COC[C@H](CC(C)C)NC(=O)[C@H]1O[C@@H]1C(=O)[O-].[Na+]", "note": "[Na salt (obtained according to the conventional process)] [sodium (2S,3S)-3-[[(1S)-1-isobutoxymethyl-3-methylbutyl]carbamoyl]oxirane-2-carboxylate, reference compound]", "values": [{"measurement": "Remaining ratio(%) after 3 days at 80° C.", "setting": "[1]", "result": "13-77%"}]}, {"smiles": "CC(C)COC[C@H](CC(C)C)NC(=O)[C@H]1O[C@@H]1C(=O)[O-].[Na+]", "note": "[Na salt (obtained in Example 9), sodium (2S,3S)-3-[[(1S)-1-isobutoxymethyl-3-methylbutyl]carbamoyl]oxirane-2-carboxylate]", "values": [{"measurement": "Remaining ratio(%) after 3 days at 80° C.", "setting": "[1]", "result": "95-98%"}, {"measurement": "storage stability (result in words)", "setting": "[1]", "result": "superior to the substances for comparison in storage stability"}]}, {"smiles": "CC(C)COC[C@H](CC(C)C)NC(=O)[C@H]1O[C@@H]1C(=O)[O-].[Na+]", "note": "[Na salt (obtained through recrystallization and drying in ai] [sodium (2S,3S)-3-[[(1S)-1-isobutoxymethyl-3-methylbutyl]carbamoyl]oxirane-2-carboxylate, reference compound]", "values": [{"measurement": "Remaining ratio(%) after 3 days at 80° C.", "setting": "[1]", "result": "38-77%"}]}]}
